Reference: ChEMBL document CHEMBL5291721, “A preclinical secondary pharmacology resource illuminates target-adverse drug reaction associations of marketed drugs” (Nat Commun, 2023)

Columns and labels:
Adenosine receptor A1 = molecular target: T1, Adenosine receptor A1 (Homo sapiens, UniProt P30542)
T1 sequence (P30542 whole entry): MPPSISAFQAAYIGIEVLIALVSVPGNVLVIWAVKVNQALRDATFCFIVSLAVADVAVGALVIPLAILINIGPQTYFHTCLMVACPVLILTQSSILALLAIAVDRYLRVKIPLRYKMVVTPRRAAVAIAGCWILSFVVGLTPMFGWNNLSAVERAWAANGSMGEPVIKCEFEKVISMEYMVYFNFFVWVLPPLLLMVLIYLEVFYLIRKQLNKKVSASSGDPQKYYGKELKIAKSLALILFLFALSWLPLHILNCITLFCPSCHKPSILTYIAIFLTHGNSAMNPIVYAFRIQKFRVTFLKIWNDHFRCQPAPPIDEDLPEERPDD

Androgen receptor [1] = molecular target: T2, Androgen receptor (Rattus norvegicus, UniProt P15207)
T2 sequence (P15207 whole entry): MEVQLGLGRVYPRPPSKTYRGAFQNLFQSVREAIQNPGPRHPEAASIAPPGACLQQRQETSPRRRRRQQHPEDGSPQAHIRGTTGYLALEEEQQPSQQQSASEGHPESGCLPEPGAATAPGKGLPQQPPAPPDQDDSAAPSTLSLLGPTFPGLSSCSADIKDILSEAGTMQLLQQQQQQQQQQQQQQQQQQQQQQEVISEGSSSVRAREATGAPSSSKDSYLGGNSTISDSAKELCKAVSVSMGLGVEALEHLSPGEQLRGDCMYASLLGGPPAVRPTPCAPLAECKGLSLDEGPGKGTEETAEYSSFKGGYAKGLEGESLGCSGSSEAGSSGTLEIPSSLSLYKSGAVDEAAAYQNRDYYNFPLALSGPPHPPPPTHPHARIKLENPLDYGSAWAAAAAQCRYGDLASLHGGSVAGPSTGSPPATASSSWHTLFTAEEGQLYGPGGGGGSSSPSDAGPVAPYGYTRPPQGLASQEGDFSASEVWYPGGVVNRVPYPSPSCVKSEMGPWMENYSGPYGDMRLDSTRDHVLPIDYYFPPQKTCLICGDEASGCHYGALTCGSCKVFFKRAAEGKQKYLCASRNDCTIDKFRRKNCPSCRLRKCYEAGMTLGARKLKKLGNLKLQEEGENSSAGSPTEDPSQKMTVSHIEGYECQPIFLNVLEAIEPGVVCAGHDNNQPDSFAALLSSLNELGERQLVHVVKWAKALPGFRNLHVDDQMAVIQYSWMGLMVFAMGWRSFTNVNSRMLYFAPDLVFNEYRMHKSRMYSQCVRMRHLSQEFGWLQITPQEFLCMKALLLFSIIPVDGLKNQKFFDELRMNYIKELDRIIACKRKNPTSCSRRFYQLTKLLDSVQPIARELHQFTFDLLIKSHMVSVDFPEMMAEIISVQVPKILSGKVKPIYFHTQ

Androgen receptor [2] = molecular target: T2, Androgen receptor; format: functional
Thromboxane A2 receptor [3] = molecular target: T3, Thromboxane A2 receptor (Homo sapiens, UniProt P21731); format: functional
T3 sequence (P21731 whole entry): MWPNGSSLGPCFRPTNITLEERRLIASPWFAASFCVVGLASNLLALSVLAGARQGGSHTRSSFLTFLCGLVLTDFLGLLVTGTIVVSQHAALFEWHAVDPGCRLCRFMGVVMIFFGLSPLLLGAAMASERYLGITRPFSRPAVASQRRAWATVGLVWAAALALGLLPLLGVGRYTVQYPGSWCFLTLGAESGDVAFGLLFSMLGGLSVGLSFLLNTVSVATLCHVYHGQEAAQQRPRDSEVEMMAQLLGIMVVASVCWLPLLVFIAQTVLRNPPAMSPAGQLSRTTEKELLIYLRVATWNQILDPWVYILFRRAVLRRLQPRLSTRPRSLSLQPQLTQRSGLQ

Cannabinoid receptor 1 = Cannabinoid receptor 1 (Homo sapiens, UniProt P21554); format: functional
Sequence of Cannabinoid receptor 1 (P21554 whole entry): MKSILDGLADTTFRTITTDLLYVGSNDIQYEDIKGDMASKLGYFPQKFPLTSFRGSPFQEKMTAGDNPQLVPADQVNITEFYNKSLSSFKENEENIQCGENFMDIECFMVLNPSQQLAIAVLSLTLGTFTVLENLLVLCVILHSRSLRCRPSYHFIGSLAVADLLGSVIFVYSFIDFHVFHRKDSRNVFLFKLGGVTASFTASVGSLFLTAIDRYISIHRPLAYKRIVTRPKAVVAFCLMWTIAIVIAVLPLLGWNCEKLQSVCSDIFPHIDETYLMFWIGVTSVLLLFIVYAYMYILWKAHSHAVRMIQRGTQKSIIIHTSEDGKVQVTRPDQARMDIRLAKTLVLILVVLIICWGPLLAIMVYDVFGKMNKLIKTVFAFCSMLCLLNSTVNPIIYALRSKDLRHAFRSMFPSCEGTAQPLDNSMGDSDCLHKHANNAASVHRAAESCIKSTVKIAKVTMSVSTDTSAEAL

[4] = molecular target: 5-hydroxytryptamine receptor 7 (Homo sapiens, UniProt P34969)
Sequence of 5-hydroxytryptamine receptor 7 (P34969 whole entry): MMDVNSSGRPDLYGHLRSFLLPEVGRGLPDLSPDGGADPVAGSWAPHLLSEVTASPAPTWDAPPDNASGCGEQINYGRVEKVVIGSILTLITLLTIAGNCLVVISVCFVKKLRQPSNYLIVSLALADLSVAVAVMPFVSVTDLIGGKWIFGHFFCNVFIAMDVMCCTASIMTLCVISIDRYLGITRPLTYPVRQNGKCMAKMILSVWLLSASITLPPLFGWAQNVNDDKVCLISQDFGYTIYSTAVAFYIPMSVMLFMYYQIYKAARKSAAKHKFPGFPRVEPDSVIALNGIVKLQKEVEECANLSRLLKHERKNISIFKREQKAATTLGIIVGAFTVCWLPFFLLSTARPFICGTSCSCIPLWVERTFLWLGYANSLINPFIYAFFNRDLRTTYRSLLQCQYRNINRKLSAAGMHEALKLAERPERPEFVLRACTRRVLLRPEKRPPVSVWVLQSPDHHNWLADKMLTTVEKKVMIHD

Thromboxane A2 receptor [5] = molecular target: T3, Thromboxane A2 receptor; format: functional, cell-based
[6] = molecular target: 5-hydroxytryptamine receptor 6 (Homo sapiens, UniProt P50406)
Sequence of 5-hydroxytryptamine receptor 6 (P50406 whole entry): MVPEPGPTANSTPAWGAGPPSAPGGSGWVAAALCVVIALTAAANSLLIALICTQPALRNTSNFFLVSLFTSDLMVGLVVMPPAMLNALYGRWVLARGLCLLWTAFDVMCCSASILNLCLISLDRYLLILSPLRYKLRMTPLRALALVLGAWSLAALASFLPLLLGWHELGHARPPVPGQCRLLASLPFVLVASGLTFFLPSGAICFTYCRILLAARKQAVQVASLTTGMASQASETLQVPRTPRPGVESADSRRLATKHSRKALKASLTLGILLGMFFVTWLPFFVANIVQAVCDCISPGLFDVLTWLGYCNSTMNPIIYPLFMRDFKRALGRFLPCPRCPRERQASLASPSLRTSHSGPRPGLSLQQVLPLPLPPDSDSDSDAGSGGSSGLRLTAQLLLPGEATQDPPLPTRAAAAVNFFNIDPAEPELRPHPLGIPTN

[7] = molecular target: T4, Muscarinic acetylcholine receptor M5 (Homo sapiens, UniProt P08912)
T4 sequence (P08912 whole entry): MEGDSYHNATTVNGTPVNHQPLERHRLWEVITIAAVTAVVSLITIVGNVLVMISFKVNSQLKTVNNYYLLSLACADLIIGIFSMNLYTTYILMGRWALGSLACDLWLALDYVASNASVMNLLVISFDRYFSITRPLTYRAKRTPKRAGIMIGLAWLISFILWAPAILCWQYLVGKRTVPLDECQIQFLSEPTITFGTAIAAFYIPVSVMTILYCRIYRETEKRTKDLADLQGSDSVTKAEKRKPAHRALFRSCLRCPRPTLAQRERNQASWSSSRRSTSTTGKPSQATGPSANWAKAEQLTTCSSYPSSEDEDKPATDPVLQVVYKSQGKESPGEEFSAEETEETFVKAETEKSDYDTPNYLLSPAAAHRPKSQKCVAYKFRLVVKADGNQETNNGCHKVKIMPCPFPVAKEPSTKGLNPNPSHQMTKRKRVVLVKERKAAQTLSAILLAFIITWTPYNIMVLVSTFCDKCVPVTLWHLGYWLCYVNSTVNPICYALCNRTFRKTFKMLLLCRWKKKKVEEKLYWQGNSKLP

[8] = molecular target: Gamma-aminobutyric acid type B receptor subunit 1 (Homo sapiens, UniProt Q9UBS5)
Sequence of Gamma-aminobutyric acid type B receptor subunit 1 (Q9UBS5 whole entry): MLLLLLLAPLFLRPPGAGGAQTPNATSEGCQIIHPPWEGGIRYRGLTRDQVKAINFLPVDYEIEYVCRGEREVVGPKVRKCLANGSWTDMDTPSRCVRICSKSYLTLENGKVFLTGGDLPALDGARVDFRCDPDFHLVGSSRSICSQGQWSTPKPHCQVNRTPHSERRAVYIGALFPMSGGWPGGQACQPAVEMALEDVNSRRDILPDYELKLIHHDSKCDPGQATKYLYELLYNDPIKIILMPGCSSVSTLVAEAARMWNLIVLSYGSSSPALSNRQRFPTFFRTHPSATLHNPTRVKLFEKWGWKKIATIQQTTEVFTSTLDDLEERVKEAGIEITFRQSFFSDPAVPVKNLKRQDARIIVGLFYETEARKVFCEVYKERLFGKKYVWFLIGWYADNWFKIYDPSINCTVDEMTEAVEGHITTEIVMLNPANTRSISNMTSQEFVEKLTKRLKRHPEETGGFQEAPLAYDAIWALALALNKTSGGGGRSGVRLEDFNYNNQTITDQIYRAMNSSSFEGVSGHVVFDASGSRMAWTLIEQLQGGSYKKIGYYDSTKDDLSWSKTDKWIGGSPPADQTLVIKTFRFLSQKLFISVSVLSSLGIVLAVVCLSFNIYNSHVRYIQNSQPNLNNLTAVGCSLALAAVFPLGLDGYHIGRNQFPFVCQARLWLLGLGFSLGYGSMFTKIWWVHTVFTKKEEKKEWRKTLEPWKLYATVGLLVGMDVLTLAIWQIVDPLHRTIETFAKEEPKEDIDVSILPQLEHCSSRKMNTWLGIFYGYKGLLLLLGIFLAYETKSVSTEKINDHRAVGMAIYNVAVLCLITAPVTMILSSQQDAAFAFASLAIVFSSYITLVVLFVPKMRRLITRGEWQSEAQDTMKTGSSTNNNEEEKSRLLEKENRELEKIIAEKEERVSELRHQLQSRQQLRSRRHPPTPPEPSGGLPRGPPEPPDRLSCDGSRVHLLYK

[9] = molecular target: Hydroxycarboxylic acid receptor 2 (Homo sapiens, UniProt Q8TDS4)
D(1B) dopamine receptor = D(1B) dopamine receptor (Homo sapiens, UniProt P21918)
[10] = molecular target: Rod cGMP-specific 3',5'-cyclic phosphodiesterase subunit alpha (Homo sapiens, UniProt P16499); format: functional
Acetylcholinesterase = Acetylcholinesterase (Homo sapiens, UniProt P22303); format: functional
Sequence of Acetylcholinesterase (P22303 whole entry): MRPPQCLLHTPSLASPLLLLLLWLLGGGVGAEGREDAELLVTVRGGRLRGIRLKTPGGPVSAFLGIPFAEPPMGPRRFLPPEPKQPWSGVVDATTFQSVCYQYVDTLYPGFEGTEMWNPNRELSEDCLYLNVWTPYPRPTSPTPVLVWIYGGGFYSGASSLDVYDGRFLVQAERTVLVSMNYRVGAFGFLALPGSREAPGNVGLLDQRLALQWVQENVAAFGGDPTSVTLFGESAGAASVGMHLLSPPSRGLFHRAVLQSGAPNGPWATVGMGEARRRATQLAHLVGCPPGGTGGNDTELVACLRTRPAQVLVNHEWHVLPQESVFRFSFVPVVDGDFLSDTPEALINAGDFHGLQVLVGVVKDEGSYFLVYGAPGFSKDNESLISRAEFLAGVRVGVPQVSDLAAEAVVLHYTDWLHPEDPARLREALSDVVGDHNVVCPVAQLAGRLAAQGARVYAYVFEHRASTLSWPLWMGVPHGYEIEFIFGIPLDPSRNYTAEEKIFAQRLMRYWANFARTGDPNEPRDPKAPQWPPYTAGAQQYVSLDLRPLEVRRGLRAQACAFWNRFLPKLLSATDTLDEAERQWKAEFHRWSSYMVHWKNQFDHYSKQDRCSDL

[11] = molecular target: Sodium channel protein type 5 subunit alpha (Homo sapiens, UniProt Q14524); format: functional, cell-based
Sequence of Sodium channel protein type 5 subunit alpha (Q14524 whole entry): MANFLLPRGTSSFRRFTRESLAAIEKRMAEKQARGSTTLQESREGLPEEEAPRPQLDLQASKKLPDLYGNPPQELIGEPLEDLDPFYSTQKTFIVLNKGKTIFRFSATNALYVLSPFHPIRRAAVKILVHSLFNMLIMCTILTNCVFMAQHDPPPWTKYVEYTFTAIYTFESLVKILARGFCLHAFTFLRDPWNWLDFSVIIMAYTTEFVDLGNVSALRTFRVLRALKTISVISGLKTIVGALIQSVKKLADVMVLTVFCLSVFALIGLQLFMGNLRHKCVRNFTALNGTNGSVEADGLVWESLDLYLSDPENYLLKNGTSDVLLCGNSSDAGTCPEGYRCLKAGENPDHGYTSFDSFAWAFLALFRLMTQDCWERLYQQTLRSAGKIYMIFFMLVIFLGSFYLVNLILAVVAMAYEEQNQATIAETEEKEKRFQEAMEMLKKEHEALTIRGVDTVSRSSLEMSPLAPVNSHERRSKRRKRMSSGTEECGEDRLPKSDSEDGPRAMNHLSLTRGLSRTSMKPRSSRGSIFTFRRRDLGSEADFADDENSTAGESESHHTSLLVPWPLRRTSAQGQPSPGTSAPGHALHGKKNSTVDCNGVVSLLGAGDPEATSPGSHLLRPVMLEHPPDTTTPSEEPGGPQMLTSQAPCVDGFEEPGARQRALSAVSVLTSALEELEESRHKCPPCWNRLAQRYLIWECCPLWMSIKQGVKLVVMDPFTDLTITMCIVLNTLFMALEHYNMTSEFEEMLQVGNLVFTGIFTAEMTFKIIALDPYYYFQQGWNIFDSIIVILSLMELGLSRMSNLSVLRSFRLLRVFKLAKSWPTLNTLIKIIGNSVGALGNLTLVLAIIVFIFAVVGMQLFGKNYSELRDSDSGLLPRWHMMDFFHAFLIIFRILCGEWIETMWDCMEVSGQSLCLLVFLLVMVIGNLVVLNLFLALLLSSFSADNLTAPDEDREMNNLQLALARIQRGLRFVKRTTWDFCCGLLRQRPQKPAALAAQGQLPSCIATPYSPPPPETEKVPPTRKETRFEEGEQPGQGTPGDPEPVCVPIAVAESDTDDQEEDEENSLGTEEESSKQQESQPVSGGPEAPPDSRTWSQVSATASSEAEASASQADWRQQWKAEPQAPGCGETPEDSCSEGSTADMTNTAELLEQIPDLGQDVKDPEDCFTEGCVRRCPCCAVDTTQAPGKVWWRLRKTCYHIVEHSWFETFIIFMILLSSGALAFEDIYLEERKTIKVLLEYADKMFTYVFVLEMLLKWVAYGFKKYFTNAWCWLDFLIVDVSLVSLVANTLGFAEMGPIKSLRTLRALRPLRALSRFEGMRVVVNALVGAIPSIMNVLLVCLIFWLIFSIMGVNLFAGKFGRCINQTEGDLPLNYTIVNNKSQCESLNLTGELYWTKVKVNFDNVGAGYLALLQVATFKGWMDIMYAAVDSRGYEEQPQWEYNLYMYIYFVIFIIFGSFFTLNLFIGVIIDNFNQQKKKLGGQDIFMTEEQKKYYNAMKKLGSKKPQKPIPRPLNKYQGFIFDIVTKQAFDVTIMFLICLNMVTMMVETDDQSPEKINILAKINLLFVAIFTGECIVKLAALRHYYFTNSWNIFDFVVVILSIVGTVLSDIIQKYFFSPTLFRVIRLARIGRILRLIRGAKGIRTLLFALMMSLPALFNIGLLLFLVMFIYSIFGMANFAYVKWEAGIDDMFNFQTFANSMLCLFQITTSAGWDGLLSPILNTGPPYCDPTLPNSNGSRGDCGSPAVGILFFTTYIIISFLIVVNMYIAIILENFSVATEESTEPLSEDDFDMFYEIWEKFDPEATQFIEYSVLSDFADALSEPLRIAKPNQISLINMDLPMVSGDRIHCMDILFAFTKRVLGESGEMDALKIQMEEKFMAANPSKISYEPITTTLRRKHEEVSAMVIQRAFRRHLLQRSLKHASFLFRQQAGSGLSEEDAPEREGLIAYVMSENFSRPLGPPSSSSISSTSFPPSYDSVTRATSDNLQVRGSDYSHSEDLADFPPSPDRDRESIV
Also: assay procedure not described here.

SMILES: O=C(Cc1ccc(-c2ccccc2)cc1)Nc1ccccn1 [DIFENPIRAMIDE]
- AC50 (Adenosine receptor A1): > 30 µM

SMILES: CN1C(C(=O)Nc2ccccn2)=C(O)c2sc(Cl)cc2S1(=O)=O [LORNOXICAM]
- AC50 (Androgen receptor [1]): > 30 µM

SMILES: C1CCC(C(CC2CCCCN2)C2CCCCC2)CC1 (configuration not stated) [PERHEXILINE]
- AC50 (Androgen receptor [2]): > 30 µM

SMILES: Cc1cn([C@H]2C=C[C@@H](CO)O2)c(=O)[nH]c1=O [STAVUDINE]
- AC50 (Thromboxane A2 receptor [3]): > 30 µM
- AC50 (Cannabinoid receptor 1): > 10 µM
- AC50 [4]: > 10 µM
- AC50 (Thromboxane A2 receptor [5]): > 30 µM
- AC50 [6]: > 10 µM
- AC50 (Adenosine receptor A1): > 30 µM
- AC50 [7]: > 10 µM
- AC50 [8]: > 10 µM

SMILES: CCC(C)n1ncn(-c2ccc(N3CCN(c4ccc(OCC5COC(Cn6cncn6)(c6ccc(Cl)cc6Cl)O5)cc4)CC3)cc2)c1=O (configuration not stated) [ITRACONAZOLE]
- AC50 (Cannabinoid receptor 1): > 10 µM
- AC50 [4]: > 10 µM
- AC50 [6]: > 10 µM
- AC50 [7]: > 10 µM
- AC50 [8]: > 10 µM

SMILES: Clc1ccc2nsnc2c1NC1=NCCN1 [TIZANIDINE]
- AC50 (Androgen receptor [1]): > 30 µM
- AC50 [9]: > 10 µM

SMILES: CCC1=C(C)CN(C(=O)NCCc2ccc(S(=O)(=O)NC(=O)N[C@H]3CC[C@H](C)CC3)cc2)C1=O [GLIMEPIRIDE]
- AC50 (Adenosine receptor A1): > 30 µM

SMILES: C=CCc1ccccc1OCC(O)CNC(C)C (configuration not stated) [ALPRENOLOL]
- AC50 (Androgen receptor [2]): > 30 µM

SMILES: CS(=O)(=O)c1ccc(C2=C(c3ccccc3)C(=O)OC2)cc1 [ROFECOXIB]
- AC50 (Cannabinoid receptor 1): > 10 µM
- AC50 [4]: > 10 µM
- AC50 (D(1B) dopamine receptor): > 10 µM
- AC50 [6]: > 10 µM
- AC50 [7]: > 10 µM
- AC50 [10]: > 10 µM
- AC50 [8]: > 10 µM

SMILES: O=C(O[C@H]1C[C@H]2CC[C@@H](C1)[N+]21CCCC1)C(O)(c1ccccc1)c1ccccc1 [TROSPIUM]
- AC50 (Androgen receptor [2]): > 30 µM

SMILES: CNC1Cc2ccccc2N(C)c2ccccc21 (configuration not stated) [METAPRAMINE]
- AC50 (Thromboxane A2 receptor [3]): > 30 µM
- AC50 (Thromboxane A2 receptor [5]): > 30 µM
- AC50 (Androgen receptor [2]): > 30 µM
- AC50 (Acetylcholinesterase): > 30 µM

SMILES: C[C@]12CCC(=O)C=C1CC[C@@H]1[C@@H]2[C@@H](O)C[C@@]2(C)[C@H]1CC[C@]2(O)C(=O)CO [HYDROCORTISONE]
- AC50 (Androgen receptor [1]): > 30 µM
- AC50 [9]: > 10 µM

SMILES: Cn1nnc2c(C(N)=O)ncn2c1=O [TEMOZOLOMIDE]
- AC50 (Thromboxane A2 receptor [3]): > 30 µM
- AC50 (Cannabinoid receptor 1): > 10 µM
- AC50 [4]: > 10 µM
- AC50 (Thromboxane A2 receptor [5]): > 30 µM
- AC50 [6]: > 10 µM
- AC50 [7]: > 10 µM
- AC50 [8]: > 10 µM
- AC50 (Acetylcholinesterase): > 30 µM

SMILES: CC[C@H]1OC(=O)[C@H](C)[C@@H](O[C@H]2C[C@@](C)(OC)[C@@H](O)[C@H](C)O2)[C@H](C)[C@@H](O[C@@H]2O[C@H](C)C[C@H](N(C)C)[C@H]2O)[C@](C)(O)C[C@@H](C)CN(C)[C@H](C)[C@@H](O)[C@]1(C)O [AZITHROMYCIN]
- AC50 (Cannabinoid receptor 1): > 10 µM
- AC50 [4]: > 10 µM
- AC50 [11]: > 30 µM
- AC50 [6]: > 10 µM
- AC50 (Adenosine receptor A1): > 30 µM
- AC50 [7]: > 10 µM
- AC50 [8]: > 10 µM

SMILES: CCc1oc2ccccc2c1C(=O)c1cc(I)c(O)c(I)c1 [BENZIODARONE]
- AC50 (Adenosine receptor A1): 18.2 µM

SMILES: c1ccc([C@H]2CN3CCSC3=N2)cc1 [LEVAMISOLE]
- AC50 (Thromboxane A2 receptor [3]): > 30 µM
- AC50 (Thromboxane A2 receptor [5]): > 30 µM
- AC50 [11]: > 50 µM
- AC50 (Acetylcholinesterase): > 30 µM

SMILES: COc1ccc(CC(C)(C)NC[C@H](O)c2cc(O)cc3c2OCC(=O)N3)cc1 [OLODATEROL]
- AC50 (Androgen receptor [2]): > 30 µM
- AC50 [11]: > 50 µM
- AC50 (Acetylcholinesterase): > 30 µM
